Laboratory results as given in patent US20190276439A1, “METHOD OF TREATING SOLID TUMORS” (priority 2016, published 2019).
pIC50: −log10 of the molar value. Where two headings read alike, the source gives them in different places.

Tests used:
FGFR1 = FGFR1 (Homo sapiens, UniProt P11362); assay: Compound A kinase selectivity profile; format: biochemical
Fms kinase = target: T1, Fms kinase (Homo sapiens, UniProt P07333); assay: CSF1R inhibition, [γ-33P-ATP] incorporation assay (Eurofins); format: biochemical
T1 construct: purchased Eurofins Pharma Discovery Services UK Ltd
Procedure: Inhibition of compound A on Fins was determined using […] incorporation assay carried by Eurofins Pharma Discovery Services UK Ltd. Fms kinase was incubated with 8 mM MOPS (3-(N-Morpholino)propanesulfonic acid sodium) pH 7.0, 0.2 mM EDTA ((Ethylenedinitrilo)tetraacetic acid disodium salt), 250 μM […] (a peptide), 10 mM MgAcetate and [γ-33P-ATP] (specific activity approx. 500 cpm/pmol, concentration as required). The reaction was initiated by the addition of the MgATP mix. After incubation for 40 minutes at room temperature, the reaction was stopped by the addition of 3% phosphoric acid solution. 10 μL of the reaction was then spotted onto a P30 filtermat and washed three times for 5 minutes in 75 mM phosphoric acid and once in methanol prior to drying and scintillation counting.

VEGFR 2 = VEGFR 2 (Homo sapiens, UniProt P35968); assay: Compound A kinase selectivity profile; format: biochemical
TrkB = TrkB (Homo sapiens, UniProt Q16620); assay: Compound A kinase selectivity profile; format: biochemical
FLT3 = target: T2, FLT3 (Homo sapiens, UniProt P36888); assay: Compound A kinase selectivity profile; format: biochemical
T2 sequence (P36888 27-993): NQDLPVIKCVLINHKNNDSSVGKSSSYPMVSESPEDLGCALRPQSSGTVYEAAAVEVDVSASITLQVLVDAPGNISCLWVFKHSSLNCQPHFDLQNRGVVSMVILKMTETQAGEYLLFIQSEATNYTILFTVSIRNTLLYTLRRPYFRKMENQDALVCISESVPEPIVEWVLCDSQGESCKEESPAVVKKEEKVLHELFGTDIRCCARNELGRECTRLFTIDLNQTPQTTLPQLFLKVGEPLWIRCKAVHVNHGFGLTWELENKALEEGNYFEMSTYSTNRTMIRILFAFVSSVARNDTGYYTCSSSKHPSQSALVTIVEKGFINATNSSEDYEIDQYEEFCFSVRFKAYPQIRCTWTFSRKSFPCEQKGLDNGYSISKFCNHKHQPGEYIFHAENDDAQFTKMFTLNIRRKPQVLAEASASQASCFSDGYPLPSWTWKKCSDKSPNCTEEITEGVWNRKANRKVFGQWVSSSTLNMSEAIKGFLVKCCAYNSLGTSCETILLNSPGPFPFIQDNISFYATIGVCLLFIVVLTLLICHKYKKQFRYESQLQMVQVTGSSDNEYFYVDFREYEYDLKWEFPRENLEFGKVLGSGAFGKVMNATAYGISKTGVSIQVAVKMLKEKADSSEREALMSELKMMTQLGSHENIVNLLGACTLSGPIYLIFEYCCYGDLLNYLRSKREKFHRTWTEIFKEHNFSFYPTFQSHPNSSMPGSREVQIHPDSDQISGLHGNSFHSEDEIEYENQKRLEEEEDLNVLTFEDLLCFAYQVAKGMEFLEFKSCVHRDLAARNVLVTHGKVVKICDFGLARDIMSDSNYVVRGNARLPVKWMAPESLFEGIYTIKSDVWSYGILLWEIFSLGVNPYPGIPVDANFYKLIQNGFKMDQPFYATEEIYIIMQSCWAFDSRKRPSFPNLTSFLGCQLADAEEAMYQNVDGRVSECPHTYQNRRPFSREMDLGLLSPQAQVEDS

VEGFR 1 = VEGFR 1 (Homo sapiens, UniProt P17948); assay: Compound A kinase selectivity profile; format: biochemical
advanced solid tumors = assay: Phase 1 clinical study: tumor response (RECIST Version 1.0); format: in vivo, human; details: total 77 patients
Procedure: Patients with neuroendocrine tumors (NETs) were enrolled with priority as preliminary efficacy was shown in these tumor types in the dose-escalation stage.
Tumor response (an exploratory endpoint) was assessed according to Response Evaluation Criteria in Solid Tumors (RECIST) Version 1.0 and measured at baseline, and at the end of every treatment cycle in the first 4 cycles and every other cycle thereafter. Patients with an initial assessment of complete response (CR) or partial response (PR) had to have the result confirmed by a repeat tumor assessment at least 4 weeks later. Calculations of the following parameters were made: objective response rate (ORR) (CR+PR); stable disease (SD) defined as ≥1 assessment of SD at least 6 weeks after study entry; disease control rate (DCR) (CR+PR+SD). Time to response (TTR), duration of response (DoR), and progression-free survival (PFS) were assessed in the subgroup of patients with NET.

CSF1R = CSF1R (Homo sapiens, UniProt P07333); assay: Compound A kinase selectivity profile; format: biochemical
VEGFR 3 = VEGFR 3 (Homo sapiens, UniProt P35916); assay: Compound A kinase selectivity profile; format: biochemical
278 other kinases = assay: Compound A kinase selectivity profile; format: biochemical
[1] = Phase 1 clinical study: toxicity, DLT and MTD assessments; format: in vivo, human; details: doses of 50-350 mg QD and 125-150 mg BID; up to 350 mg QD (formulation 2)
Procedure: During the dose-escalation phase, patients were given a single dose of compound A and monitored for adverse events (AEs) for 7 days. If no clinically significant toxicities were observed, patients could enter the 28-day dose-limiting toxicity (DLT) observation phase where they received compound A continuously for 28 days. DLTs were assessed at the end of the 28-day period. If no patients experienced a DLT during the 28-day period, the dose was escalated (FIG. 1). After the completion of the DLT observation phase, patients could continue compound A treatment at their current dose (if they were judged by the investigator to be benefiting from the treatment) until any of the withdrawal criteria (investigator's decision that withdrawal was in the patient's best interest, intolerable toxicity, disease progression) were met.
The study used a modified Fibonacci 3+3 dose-escalation design with at least three evaluable patients treated with each dose. In total, 12 dose cohorts were assessed (FIG. 1). […] If […] patients experienced a DLT, the MTD was considered exceeded and the previous lower dose would be re-assessed to determine the MTD. […]
Safety and tolerability were assessed in all patients who received at least one dose of study medication throughout the study. AEs were recorded throughout the study. […]

NET = details: cited from earlier work; for ORR: phase 3 trial

T1 sequence (P07333 20-972): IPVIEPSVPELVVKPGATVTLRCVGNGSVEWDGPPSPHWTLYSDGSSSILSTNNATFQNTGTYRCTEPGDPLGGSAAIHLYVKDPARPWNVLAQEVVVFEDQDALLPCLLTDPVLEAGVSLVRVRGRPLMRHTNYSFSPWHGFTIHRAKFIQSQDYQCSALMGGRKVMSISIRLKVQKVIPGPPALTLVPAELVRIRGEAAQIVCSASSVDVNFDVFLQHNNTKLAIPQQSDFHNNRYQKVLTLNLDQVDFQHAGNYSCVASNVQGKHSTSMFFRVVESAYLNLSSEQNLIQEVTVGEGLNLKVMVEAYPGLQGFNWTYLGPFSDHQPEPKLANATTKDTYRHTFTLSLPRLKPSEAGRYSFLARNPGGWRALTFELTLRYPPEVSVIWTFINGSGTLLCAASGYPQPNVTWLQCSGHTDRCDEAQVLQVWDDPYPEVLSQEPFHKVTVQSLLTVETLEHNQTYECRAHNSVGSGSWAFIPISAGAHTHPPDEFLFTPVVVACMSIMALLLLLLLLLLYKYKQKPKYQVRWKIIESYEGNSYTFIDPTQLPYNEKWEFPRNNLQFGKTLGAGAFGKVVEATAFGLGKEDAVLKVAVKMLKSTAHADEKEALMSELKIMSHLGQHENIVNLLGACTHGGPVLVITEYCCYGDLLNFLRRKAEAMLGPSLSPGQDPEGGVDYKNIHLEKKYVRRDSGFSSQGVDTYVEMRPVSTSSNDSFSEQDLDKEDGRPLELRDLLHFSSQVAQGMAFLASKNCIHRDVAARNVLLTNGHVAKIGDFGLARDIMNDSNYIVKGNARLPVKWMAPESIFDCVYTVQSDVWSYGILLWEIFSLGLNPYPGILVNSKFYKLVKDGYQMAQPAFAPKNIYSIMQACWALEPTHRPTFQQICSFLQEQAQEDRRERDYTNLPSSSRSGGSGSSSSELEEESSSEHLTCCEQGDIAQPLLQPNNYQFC
Chain of VEGFR 3 (P35916 25-1363): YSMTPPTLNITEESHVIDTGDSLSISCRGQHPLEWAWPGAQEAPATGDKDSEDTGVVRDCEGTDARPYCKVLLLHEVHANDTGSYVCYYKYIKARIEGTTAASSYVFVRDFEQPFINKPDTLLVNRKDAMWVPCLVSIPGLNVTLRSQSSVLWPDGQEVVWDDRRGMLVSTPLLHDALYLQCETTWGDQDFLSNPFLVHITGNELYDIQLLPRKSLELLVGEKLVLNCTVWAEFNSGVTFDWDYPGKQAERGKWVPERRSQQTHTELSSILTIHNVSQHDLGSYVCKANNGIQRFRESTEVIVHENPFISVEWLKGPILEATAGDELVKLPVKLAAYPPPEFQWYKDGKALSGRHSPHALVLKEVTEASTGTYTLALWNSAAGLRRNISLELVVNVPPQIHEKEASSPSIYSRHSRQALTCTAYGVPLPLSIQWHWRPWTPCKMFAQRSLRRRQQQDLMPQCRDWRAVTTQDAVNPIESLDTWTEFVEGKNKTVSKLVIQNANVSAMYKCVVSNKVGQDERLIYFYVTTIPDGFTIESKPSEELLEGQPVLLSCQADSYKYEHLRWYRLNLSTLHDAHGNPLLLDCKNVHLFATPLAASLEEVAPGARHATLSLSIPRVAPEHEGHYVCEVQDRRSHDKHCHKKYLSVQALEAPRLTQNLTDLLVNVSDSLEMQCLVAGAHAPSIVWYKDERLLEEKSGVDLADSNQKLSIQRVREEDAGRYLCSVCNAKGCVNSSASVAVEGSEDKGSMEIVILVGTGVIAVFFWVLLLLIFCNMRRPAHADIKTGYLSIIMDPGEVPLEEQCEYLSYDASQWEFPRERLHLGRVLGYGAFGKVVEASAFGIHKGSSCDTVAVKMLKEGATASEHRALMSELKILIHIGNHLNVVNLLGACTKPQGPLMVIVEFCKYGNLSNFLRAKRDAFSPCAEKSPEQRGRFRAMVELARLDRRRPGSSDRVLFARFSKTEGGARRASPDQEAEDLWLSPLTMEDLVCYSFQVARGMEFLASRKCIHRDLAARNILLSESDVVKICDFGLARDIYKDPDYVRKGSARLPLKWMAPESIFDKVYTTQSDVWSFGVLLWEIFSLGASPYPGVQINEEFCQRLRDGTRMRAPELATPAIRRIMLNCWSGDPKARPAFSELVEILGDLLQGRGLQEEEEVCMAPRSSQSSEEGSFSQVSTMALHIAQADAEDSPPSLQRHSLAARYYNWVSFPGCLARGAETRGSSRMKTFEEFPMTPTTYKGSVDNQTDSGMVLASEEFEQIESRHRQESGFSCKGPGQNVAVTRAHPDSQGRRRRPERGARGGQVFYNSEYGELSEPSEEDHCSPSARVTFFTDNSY
Chain of CSF1R (P07333 20-972): as the sequence (P07333 20-972) above
Chain of FGFR1 (P11362 22-822): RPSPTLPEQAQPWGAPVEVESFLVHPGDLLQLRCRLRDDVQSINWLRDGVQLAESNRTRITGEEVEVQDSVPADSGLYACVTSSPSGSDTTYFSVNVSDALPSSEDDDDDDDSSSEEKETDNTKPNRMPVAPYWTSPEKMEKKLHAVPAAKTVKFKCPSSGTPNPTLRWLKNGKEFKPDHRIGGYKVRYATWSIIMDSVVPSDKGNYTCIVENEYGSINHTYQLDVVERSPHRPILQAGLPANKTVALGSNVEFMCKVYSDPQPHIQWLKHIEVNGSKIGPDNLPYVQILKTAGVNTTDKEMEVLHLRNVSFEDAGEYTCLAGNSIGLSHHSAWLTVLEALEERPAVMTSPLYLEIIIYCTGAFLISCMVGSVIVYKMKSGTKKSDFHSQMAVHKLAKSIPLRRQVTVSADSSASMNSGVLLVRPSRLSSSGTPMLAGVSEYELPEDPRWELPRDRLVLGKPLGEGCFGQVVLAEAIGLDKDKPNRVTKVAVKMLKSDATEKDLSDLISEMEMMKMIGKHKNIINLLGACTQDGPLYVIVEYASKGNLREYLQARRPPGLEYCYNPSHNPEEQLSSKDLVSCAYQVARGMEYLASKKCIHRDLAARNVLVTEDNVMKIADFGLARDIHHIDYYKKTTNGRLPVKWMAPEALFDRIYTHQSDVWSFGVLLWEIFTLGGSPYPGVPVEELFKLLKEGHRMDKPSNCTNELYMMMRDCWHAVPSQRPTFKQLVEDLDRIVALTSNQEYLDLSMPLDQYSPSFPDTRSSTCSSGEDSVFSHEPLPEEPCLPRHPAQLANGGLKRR
Chain of VEGFR 1 (P17948 27-1338): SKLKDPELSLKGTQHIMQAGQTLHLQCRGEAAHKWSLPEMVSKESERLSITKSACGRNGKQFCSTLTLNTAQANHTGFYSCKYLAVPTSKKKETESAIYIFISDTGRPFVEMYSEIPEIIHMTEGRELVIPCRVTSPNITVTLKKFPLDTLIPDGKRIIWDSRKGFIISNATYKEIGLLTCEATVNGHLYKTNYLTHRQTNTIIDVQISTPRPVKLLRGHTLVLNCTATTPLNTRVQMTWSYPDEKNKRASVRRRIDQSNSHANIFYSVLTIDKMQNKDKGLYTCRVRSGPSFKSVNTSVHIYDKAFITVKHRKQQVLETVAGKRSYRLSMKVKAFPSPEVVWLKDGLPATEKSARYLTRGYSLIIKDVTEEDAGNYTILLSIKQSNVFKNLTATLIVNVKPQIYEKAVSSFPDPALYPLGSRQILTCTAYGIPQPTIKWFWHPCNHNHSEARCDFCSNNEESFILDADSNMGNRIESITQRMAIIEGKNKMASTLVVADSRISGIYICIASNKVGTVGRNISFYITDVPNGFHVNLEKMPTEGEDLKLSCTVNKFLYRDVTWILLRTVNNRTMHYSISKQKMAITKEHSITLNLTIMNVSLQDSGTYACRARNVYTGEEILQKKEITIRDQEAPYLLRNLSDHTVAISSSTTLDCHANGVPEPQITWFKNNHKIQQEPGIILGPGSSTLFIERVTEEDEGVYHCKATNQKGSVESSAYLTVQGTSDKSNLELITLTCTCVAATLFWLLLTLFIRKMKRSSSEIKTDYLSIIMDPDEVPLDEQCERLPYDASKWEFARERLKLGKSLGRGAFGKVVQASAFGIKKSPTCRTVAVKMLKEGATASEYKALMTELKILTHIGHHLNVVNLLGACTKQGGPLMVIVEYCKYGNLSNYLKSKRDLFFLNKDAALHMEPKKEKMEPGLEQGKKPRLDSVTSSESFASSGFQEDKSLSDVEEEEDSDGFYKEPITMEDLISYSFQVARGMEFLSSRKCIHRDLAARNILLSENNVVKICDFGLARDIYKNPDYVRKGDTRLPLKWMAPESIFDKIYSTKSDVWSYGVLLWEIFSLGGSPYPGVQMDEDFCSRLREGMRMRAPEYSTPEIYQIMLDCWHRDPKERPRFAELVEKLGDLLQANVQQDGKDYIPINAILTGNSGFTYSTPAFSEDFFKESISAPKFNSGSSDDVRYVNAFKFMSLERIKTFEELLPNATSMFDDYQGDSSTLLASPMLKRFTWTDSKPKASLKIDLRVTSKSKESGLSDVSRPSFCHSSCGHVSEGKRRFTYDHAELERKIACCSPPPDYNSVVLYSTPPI

In the case of `Cc1cc2cc(Oc3ccnc(Nc4cccc(CS(=O)(=O)NCCN(C)C)c4)n3)ccc2[nH]1` [Compound A, N-(2-(dimethylamino)ethyl)-1-(3-((4-((2-methyl-1H-indol-5-yl)oxy)pyrimidin-2-yl)amino)phenyl)-methanesulfonamide], the pIC50 (FGFR1) was 7.82, the “IH (%)” value (Fms kinase; 0.0001 μM) was −3% and the “IH (%)” value (Fms kinase; 0.0003 μM) was 3%. The “IH (%)” value (Fms kinase; 0.001 μM) was 15%, the “IH (%)” value (Fms kinase; 0.003 μM) was 38% and the “IH (%)” value (Fms kinase; 0.01 μM) was 72%. The “IH (%)” value (Fms kinase; 0.03 μM) was 86%, the “IH (%)” value (Fms kinase; 0.1 μM) was 94% and the “IH (%)” value (Fms kinase; 0.3 μM) was 98%. For the same compound, the “IH (%)” value (Fms kinase; 1 μM) was 98%, the pIC50 (VEGFR 2) was 7.62 and the pIC50 (TrkB) was 7.39. The pIC50 (FLT3) was 7.17, the pIC50 (VEGFR 1) was 8.70 and the “patients with confirmed PR” value (advanced solid tumors) was “nine”. The pIC50 (CSF1R) was 8.40, the pIC50 (VEGFR 3) was 9.00 and the pIC50 (278 other kinases) was < 6.82. The “MTD (maximum tolerated dose)” value [1] was “not reached”.
In the case of `CO[C@H]1C[C@@H]2CC[C@@H](C)[C@@](O)(O2)C(=O)C(=O)N2CCCC[C@H]2C(=O)O[C@H]([C@H](C)C[C@@H]2CC[C@@H](OCCO)[C@H](OC)C2)CC(=O)[C@H](C)/C=C(\C)[C@@H](O)[C@@H](OC)C(=O)[C@H](C)C[C@H](C)/C=C/C=C/C=C/1C` [everolimus], the ORR (NET; GI and lung NET) is listed as 2%, the ORR (NET; pancreatic NET) is listed as 5% and the “median PFS” value (NET; phase 3 trials) is listed as “approximately 11 months”.
